Test results reported in patent publication US8906925B2, “Pyrido[4,3-B]indoles containing rigid moieties” (Medivation Technologies, Inc., priority 2008, dated 2014).

Columns and labels:
[1] = target: human dopamine D2L receptor (Homo sapiens, UniProt P14416); experiment: Dopamine D2L radioligand binding ([3H]Spiperone); details: compound at 1 μM; […] [3H]Spiperone; read-out: Inhibition of ligand binding, Dopamine D2L (percent inhibition of specific binding)
Excerpt: Non-specific binding was estimated in the presence of […] Haloperidol. Receptor proteins were filtered and washed, the filters were then counted to determine [^3H]Spiperone specifically bound. […] Biochemical assay results are presented as the percent inhibition of specific binding in Table 9.

histamine receptor H1 = histamine receptor H1 (Homo sapiens, UniProt P35367); experiment: Histamine H1 radioligand binding ([3H]Pyrilamine); details: read-out: Histamine Binding (1 μM) H1, percent inhibition of specific binding, 1 μM
histamine receptor H1, sequence (P35367 whole entry): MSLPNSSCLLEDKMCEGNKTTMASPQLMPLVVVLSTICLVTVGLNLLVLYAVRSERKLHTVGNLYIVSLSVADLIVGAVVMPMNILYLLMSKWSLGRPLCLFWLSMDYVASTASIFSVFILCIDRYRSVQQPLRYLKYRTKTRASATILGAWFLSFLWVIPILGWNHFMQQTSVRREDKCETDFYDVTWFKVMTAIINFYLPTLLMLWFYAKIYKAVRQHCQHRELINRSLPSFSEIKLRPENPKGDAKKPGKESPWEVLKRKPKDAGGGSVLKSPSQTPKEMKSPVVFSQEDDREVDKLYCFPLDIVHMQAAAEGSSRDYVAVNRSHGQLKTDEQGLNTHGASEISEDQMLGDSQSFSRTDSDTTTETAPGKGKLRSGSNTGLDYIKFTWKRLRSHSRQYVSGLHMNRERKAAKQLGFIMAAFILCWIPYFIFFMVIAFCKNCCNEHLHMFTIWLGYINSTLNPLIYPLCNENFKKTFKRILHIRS
Description: To evaluate in radioligand binding assays the activity of compounds of the invention, human recombinant histamine H1 receptor expressed in Chinese hamster ovary (CHO) cells (De Backer, M. D. et al., Biochem. Biophys. Res. Comm. 197(3):1601, 1993) in a modified Tris-HCl buffer (50 mM Tris-HCl, pH 7.4, 2 mM MgCl2, 100 mM NaCl, 250 mM Sucrose) was used. Compounds of the invention were incubated with 1.2 nM [^3H]Pyrilamine for 180 min. at 25° C. Non-specific binding was estimated in the presence of 1 μM pyrilamine. Receptor proteins were filtered and washed, the filters were then counted to determine [^3H]Pyrilamine specifically bound. Compounds were screened at 1 μM or lower, using 1% DMSO as vehicle. Biochemical assay results are presented as the percent inhibition of specific binding in Table 8.

human dopamine D2L receptor, sequence (P14416 whole entry): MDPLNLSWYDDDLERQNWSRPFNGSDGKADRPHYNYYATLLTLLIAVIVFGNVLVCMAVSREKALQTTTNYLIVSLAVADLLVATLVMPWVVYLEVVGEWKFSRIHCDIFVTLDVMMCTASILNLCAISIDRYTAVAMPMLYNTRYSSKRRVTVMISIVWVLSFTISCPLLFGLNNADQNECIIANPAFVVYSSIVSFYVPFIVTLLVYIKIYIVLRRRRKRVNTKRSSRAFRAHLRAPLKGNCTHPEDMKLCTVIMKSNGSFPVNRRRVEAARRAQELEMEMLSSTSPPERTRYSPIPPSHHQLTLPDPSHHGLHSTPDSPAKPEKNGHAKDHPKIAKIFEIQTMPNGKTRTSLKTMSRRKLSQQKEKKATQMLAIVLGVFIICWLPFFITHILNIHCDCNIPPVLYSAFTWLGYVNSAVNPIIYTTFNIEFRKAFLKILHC

## C/C=C(/Cn1c2c(c3cc(C)ccc31)CN(C)CC2)c1ccncc1 [Compound No. 361, (E)-2,8-dimethyl-5-(2-(pyridin-4-yl)but-2-enyl)-2,3,4,5-tetrahydro-1H-pyrido[4,3-b]indole]
[1]
  inhibition at 1 µM: 51%
Histamine receptor H1
  inhibition at 1 µM: 96%

## C/C=C(/Cn1c2c(c3cc(Cl)ccc31)CN(C)CC2)c1ccncc1 [Compound No. 362, (E)-8-chloro-2-methyl-5-(2-(pyridin-4-yl)but-2-enyl)-2,3,4,5-tetrahydro-1H-pyrido[4,3-b]indole]
[1]
  inhibition at 1 µM: 79%
Histamine receptor H1
  inhibition at 1 µM: 98%

## C=C(Cn1c2c(c3cccc(F)c31)CN(C)CC2)c1ccncc1 [Compound No. 363, 6-fluoro-2-methyl-5-(2-(pyridin-4-yl)allyl)-2,3,4,5-tetrahydro-1H-pyrido[4,3-b]indole]
[1]
  inhibition at 1 µM: 53%
Histamine receptor H1
  inhibition at 1 µM: 62%

## C=C(Cn1c2c(c3cc(C)ccc31)CN(C)CC2)c1cnccn1 [Compound No. 364, 2,8-dimethyl-5-(2-(pyrazin-2-yl)allyl)-2,3,4,5-tetrahydro-1H-pyrido[4,3-b]indole]
[1]
  inhibition at 1 µM: 27%
Histamine receptor H1
  inhibition at 1 µM: 95%

## C/C(=C/n1c2c(c3cc(C)ccc31)CN(C)CC2)c1cccc(C(=O)N(C)C)c1 [Compound No. 458, (Z)-3-(1-(2,8-dimethyl-3,4-dihydro-1H-pyrido[4,3-b]indol-5(2H)-yl)prop-1-en-2-yl)-N,N-dimethylbenzamide]
[1]
  inhibition at 1 µM: 15%
Histamine receptor H1
  inhibition at 1 µM: 56%

## CSc1ccc(/C(C)=C/n2c3c(c4cc(C)ccc42)CN(C)CC3)cc1 [Compound No. 459, (E)-2,8-dimethyl-5-(2-(4-(methylthio)phenyl)prop-1-enyl)-2,3,4,5-tetrahydro-1H-pyrido[4,3-b]indole]
[1]
  inhibition at 1 µM: 71%
Histamine receptor H1
  inhibition at 1 µM: 53%

## CN1CCc2c(c3cc(Cl)ccc3n2/C=C(\c2ccccc2)c2ccncc2)C1 [Compound No. 460, (E)-8-chloro-2-methyl-5-(2-phenyl-2-(pyridin-4-yl)vinyl)-2,3,4,5-tetrahydro-1H-pyrido[4,3-b]indole]
[1]
  inhibition at 1 µM: 67%
Histamine receptor H1
  inhibition at 1 µM: 17%

## CN1CCc2c(c3cc(Cl)ccc3n2/C=C(/c2ccccc2)c2ccncc2)C1 [Compound No. 461, (Z)-8-chloro-2-methyl-5-(2-phenyl-2-(pyridin-4-yl)vinyl)-2,3,4,5-tetrahydro-1H-pyrido[4,3-b]indole]
[1]
  inhibition at 1 µM: 78%
Histamine receptor H1
  inhibition at 1 µM: 31%

## C/C(=C\n1c2c(c3cc(C)ccc31)CN(C)CC2)c1ccc(S(C)(=O)=O)cc1 [Compound No. 462, (E)-2,8-dimethyl-5-(2-(4-(methylsulfonyl)phenyl)prop-1-enyl)-2,3,4,5-tetrahydro-1H-pyrido[4,3-b]indole]
[1]
  inhibition at 1 µM: 76%
Histamine receptor H1
  inhibition at 1 µM: 32%

## CC(O)(Cn1c2c(c3cc(Cl)ccc31)CN(CCCC(=O)c1ccc(F)cc1)CC2)c1ccncc1 (centres unmarked) [Compound No. 464, 4-(8-chloro-5-(2-hydroxy-2-(pyridin-4-yl)propyl)-3,4-dihydro-1H-pyrido[4,3-b]indol-2(5H)-yl)-1-(4-fluorophenyl)butan-1-one]
[1]
  inhibition at 1 µM: 93%
Histamine receptor H1
  inhibition at 1 µM: 66%

## Cc1ccc2c(c1)c1c(n2CC(O)(c2ccccc2)c2ccccc2)CCN(C)C1 [Compound No. 465, 2-(2,8-dimethyl-3,4-dihydro-1H-pyrido[4,3-b]indol-5(2H)-yl)-1,1-diphenylethanol]
[1]
  inhibition at 1 µM: 21%
Histamine receptor H1
  inhibition at 1 µM: -14%

## CN1CCc2c(c3cc(Cl)ccc3n2CC(O)(c2ccccc2)c2ccccc2)C1 [Compound No. 466, 2-(8-chloro-2-methyl-3,4-dihydro-1H-pyrido[4,3-b]indol-5(2H)-yl)-1,1-diphenylethanol]
[1]
  inhibition at 1 µM: 54%
Histamine receptor H1
  inhibition at 1 µM: 10%

## Cc1ccc2c(c1)c1c(n2C(C)(C)C(O)c2ccccc2)CCN(C)C1 (centres unmarked) [Compound No. 467, 2-(2,8-dimethyl-3,4-dihydro-1H-pyrido[4,3-b]indol-5(2H)-yl)-2-methyl-1-phenylpropan-1-ol]
[1]
  inhibition at 1 µM: 7%
Histamine receptor H1
  inhibition at 1 µM: 54%

## Cc1ccc2c(c1)c1c(n2C(C)C(O)c2ccccc2)CCN(C)C1 (centres unmarked) [Compound No. 468, 2-(2,8-dimethyl-3,4-dihydro-1H-pyrido[4,3-b]indol-5(2H)-yl)-1-phenylpropan-1-ol]
[1]
  inhibition at 1 µM: 12%
Histamine receptor H1
  inhibition at 1 µM: 82%

## C/C(=C\n1c2c(c3cc(C)ccc31)CNCC2)c1cc[n+](C)cc1 [Compound No. 471, (E)-1-methyl-4-(1-(8-methyl-3,4-dihydro-1H-pyrido[4,3-b]indol-5(2H)-yl)prop-1-en-2-yl)pyridinium]
[1]
  inhibition at 1 µM: 2%
Histamine receptor H1
  inhibition at 1 µM: 2%

## CNC(=O)c1cccc(/C(C)=C/n2c3c(c4cc(C)ccc42)CN(C)CC3)c1 [Compound No. 472, (E)-3-(1-(2,8-dimethyl-3,4-dihydro-1H-pyrido[4,3-b]indol-5(2H)-yl)prop-1-en-2-yl)-N-methylbenzamide]
[1]
  inhibition at 1 µM: 53%
Histamine receptor H1
  inhibition at 1 µM: 21%

## C/C(=C\n1c2c(c3cc(C)ccc31)CN(C)CC2)c1cccc(S(C)(=O)=O)c1 [Compound No. 473, (E)-2,8-dimethyl-5-(2-(3-(methylsulfonyl)phenyl)prop-1-enyl)-2,3,4,5-tetrahydro-1H-pyrido[4,3-b]indole]
[1]
  inhibition at 1 µM: 59%
Histamine receptor H1
  inhibition at 1 µM: 35%

## CSc1cccc(/C(C)=C/n2c3c(c4cc(C)ccc42)CN(C)CC3)c1 [Compound No. 474, (E)-2,8-dimethyl-5-(2-(3-(methylthio)phenyl)prop-1-enyl)-2,3,4,5-tetrahydro-1H-pyrido[4,3-b]indole]
[1]
  inhibition at 1 µM: 53%
Histamine receptor H1
  inhibition at 1 µM: 98%

## CN1CCc2c(c3cc(Cl)ccc3n2C#Cc2ccc(C(F)(F)F)nc2)C1 [Compound No. 486, 8-chloro-2-methyl-5-((6-(trifluoromethyl)pyridin-3-yl)ethynyl)-2,3,4,5-tetrahydro-1H-pyrido[4,3-b]indole]
[1]
  inhibition at 1 µM: 14%
Histamine receptor H1
  inhibition at 1 µM: 22%

## CCCc1ccc(C#Cn2c3c(c4cc(Cl)ccc42)CN(C)CC3)cn1 [Compound No. 487, 8-chloro-2-methyl-5-((6-propylpyridin-3-yl)ethynyl)-2,3,4,5-tetrahydro-1H-pyrido[4,3-b]indole]
[1]
  inhibition at 1 µM: 17%
Histamine receptor H1
  inhibition at 1 µM: 75%

## CNC(=O)c1ccc(C#Cn2c3c(c4cc(C)ccc42)CN(C)CC3)cc1F [Compound No. 488, 4-((2,8-dimethyl-3,4-dihydro-1H-pyrido[4,3-b]indol-5(2H)-yl)ethynyl)-2-fluoro-N-methylbenzamide]
[1]
  inhibition at 1 µM: 19%
Histamine receptor H1
  inhibition at 1 µM: 9%

## Cc1ccc2c(c1)c1c(n2C#Cc2cccc(N(C)C)c2)CCN(C)C1 [Compound No. 489, 3-((2,8-dimethyl-3,4-dihydro-1H-pyrido[4,3-b]indol-5(2H)-vyl)ethynyl)-N,N-dimethylaniline]
[1]
  inhibition at 1 µM: 9%
Histamine receptor H1
  inhibition at 1 µM: 13%

## Cc1ccc2c(c1)c1c(n2C#Cc2ccccc2)CCN(C)C1 [Compound No. 490, 2,8-dimethyl-5-(phenylethynyl)-2,3,4,5-tetrahydro-1H-pyrido[4,3-b]indole]
[1]
  inhibition at 1 µM: 74%
Histamine receptor H1
  inhibition at 1 µM: 18%

## Cc1ccc2c(c1)c1c(n2C#Cc2ccsc2)CCN(C)C1 [Compound No. 491, 2,8-dimethyl-5-(thiophen-3-ylethynyl)-2,3,4,5-tetrahydro-1H-pyrido[4,3-b]indole]
[1]
  inhibition at 1 µM: 82%
Histamine receptor H1
  inhibition at 1 µM: 52%

## Cc1ccc2c(c1)c1c(n2C#Cc2ccoc2)CCN(C)C1 [Compound No. 492, 5-(furan-3-ylethynyl)-2,8-dimethyl-2,3,4,5-tetrahydro-1H-pyrido[4,3-b]indole]
[1]
  inhibition at 1 µM: 60%
Histamine receptor H1
  inhibition at 1 µM: 68%

## Cc1ccc2c(c1)c1c(n2C#Cc2cccs2)CCN(C)C1 [Compound No. 493, 2,8-dimethyl-5-(thiophen-2-ylethynyl)-2,3,4,5-tetrahydro-1H-pyrido[4,3-b]indole]
[1]
  inhibition at 1 µM: 56%
Histamine receptor H1
  inhibition at 1 µM: 69%

## COc1ccc(C#Cn2c3c(c4cc(C)ccc42)CN(C)CC3)cn1 [Compound No. 494, 5-((6-methoxypyridin-3-yl)ethynyl)-2,8-dimethyl-2,3,4,5-tetrahydro-1H-pyrido[4,3-b]indole]
[1]
  inhibition at 1 µM: 13%
Histamine receptor H1
  inhibition at 1 µM: 2%

## Cc1ccc2c(c1)c1c(n2C#Cc2ccncc2)CCN(C)C1 [Compound No. 495, 2,8-dimethyl-5-(pyridin-4-ylethynyl)-2,3,4,5-tetrahydro-1H-pyrido[4,3-b]indole]
[1]
  inhibition at 1 µM: 58%
Histamine receptor H1
  inhibition at 1 µM: 52%

## Cc1ccc2c(c1)c1c(n2C#Cc2ccc(C3CC3)nc2)CCN(C)C1 [Compound No. 496, 5-((6-cyclopropylpyridin-3-yl)ethynyl)-2,8-dimethyl-2,3,4,5-tetrahydro-1H-pyrido[4,3-b]indole]
[1]
  inhibition at 1 µM: 25%
Histamine receptor H1
  inhibition at 1 µM: 15%

## Cc1ccc2c(c1)c1c(n2C#Cc2cncn2C)CCN(C)C1 [Compound No. 497, 2,8-dimethyl-5-((1-methyl-1H-imidazol-5-yl)ethynyl)-2,3,4,5-tetrahydro-1H-pyrido[4,3-b]indole]
[1]
  inhibition at 1 µM: 14%
Histamine receptor H1
  inhibition at 1 µM: 17%

## Cc1ccc2c(c1)c1c(n2C#Cc2cscn2)CCN(C)C1 [Compound No. 498, 4-((2,8-dimethyl-3,4-dihydro-1H-pyrido[4,3-b]indol-5(2H)-vyl)ethynyl)thiazole]
[1]
  inhibition at 1 µM: 9%
Histamine receptor H1
  inhibition at 1 µM: 65%
